Test results taken from article PMC11796369, “Genetic and biochemical characterization of a radical SAM enzyme required for post-translational glutamine methylation of methyl-coenzyme M reductase” (mBio, 2025).

Molecular target: T1, MmMgmA (Methanothermobacter marburgensis, UniProt D9PY35)
T1 construct: gene MTBMA_c15540; full-length; E. coli BL21(DE3) from codon-optimised gene in pET28a, reconstituted with 4Fe-4S and cobalamin (structure, kinetics); also TAP-tagged from M. acetivorans (native cobamide, peptide assay)
T1 sequence (D9PY35 1-430): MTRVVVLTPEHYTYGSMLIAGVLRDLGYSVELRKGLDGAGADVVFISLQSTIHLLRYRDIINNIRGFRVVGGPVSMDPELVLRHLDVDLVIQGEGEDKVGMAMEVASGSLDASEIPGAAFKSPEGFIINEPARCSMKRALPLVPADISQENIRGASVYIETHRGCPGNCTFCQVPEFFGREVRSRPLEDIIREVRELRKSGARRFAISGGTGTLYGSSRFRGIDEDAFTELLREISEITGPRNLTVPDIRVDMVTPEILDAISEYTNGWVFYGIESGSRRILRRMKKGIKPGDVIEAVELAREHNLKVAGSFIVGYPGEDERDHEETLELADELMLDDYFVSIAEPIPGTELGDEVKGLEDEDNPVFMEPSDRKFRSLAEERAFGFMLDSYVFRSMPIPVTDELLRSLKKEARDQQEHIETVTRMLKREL
Test: UHPLC-MS of […]'-dAH and SAH
Format: biochemical
Conditions: reconstituted enzyme; 500 µM SAM, 200 µM McrA peptide, 2 mM Ti citrate, 250 mM KCl, 50 mM HEPES pH 7.5

## C[S+](CC[C@H](N)C(=O)O)C[C@H]1O[C@@H](n2cnc3c(N)ncnc32)[C@H](O)[C@@H]1O (stereo partly shown) [SAM]
  UHPLC-MS of 5'-dAH and SAH: The reconstituted enzyme was highly active
